A word on the Ki: it is a measure of affinity in units of concentration, obtained from inhibition or displacement.

Some results are limits rather than exact numbers.

Holding throughout (format): biochemical
For one test, the target named is T1, MMP-2 (Homo sapiens, UniProt P08253).
T1 construct: made in house; host or cells: MMP-2-transfected p2AHT2 cells
T1 sequence (P08253 110-660): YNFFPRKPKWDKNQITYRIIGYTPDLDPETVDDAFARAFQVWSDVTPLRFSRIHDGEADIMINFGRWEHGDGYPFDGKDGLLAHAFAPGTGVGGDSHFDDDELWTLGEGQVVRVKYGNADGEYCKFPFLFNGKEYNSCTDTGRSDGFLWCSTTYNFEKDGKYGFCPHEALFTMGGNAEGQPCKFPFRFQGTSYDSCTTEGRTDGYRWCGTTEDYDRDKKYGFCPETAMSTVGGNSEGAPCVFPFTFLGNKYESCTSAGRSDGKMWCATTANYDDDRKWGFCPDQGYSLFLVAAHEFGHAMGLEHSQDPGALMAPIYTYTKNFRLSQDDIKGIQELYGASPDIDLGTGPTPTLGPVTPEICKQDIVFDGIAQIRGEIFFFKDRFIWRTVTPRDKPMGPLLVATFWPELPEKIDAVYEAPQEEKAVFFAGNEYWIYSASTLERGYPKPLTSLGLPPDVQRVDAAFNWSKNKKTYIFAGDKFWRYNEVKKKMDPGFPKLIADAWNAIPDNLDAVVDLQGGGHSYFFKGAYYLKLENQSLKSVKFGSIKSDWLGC
In words: MMP-2 inhibition (in vitro Ki). As to conditions: Table 9; read-out: MMP-2 Ki (IC-50).

A further test deals with T2, MMP-9 (Homo sapiens, UniProt P14780).
T2 construct: made in house; host or cells: MMP-9-transfected HT1080 cells (spent media)
Put plainly: MMP-9 inhibition (in vitro Ki). Conditions: Table 9; read-out: MMP-9 Ki (IC-50).

Another test concerns the target T3, MMP-1 (Homo sapiens, UniProt P03956).
T3 construct: made in house; host or cells: MMP-1-transfected HT-1080 cells (spent media)
T3 sequence (P03956 100-469): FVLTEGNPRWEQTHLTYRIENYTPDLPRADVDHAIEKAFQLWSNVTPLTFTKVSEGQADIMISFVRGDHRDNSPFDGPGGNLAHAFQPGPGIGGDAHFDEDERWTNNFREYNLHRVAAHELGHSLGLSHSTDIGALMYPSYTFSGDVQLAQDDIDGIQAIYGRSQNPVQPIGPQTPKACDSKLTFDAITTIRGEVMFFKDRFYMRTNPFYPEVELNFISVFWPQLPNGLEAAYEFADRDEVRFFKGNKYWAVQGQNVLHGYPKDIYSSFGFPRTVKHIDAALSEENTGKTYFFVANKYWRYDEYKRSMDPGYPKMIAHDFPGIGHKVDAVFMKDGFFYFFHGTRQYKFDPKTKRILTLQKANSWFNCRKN
In words: MMP-1 inhibition (in vitro Ki). As to conditions: Table 9; read-out: MMP-1 Ki (IC-50).

In another test the target is T4, MMP-13 (Homo sapiens, UniProt P45452).
T4 construct: made in house; host or cells: baculovirus / insect cells
In words: MMP-13 inhibition (in vitro Ki). Conditions: Table 9; read-out: MMP-13 Ki (IC-50).

For a further test, the target named is T5, MMP-14 (Homo sapiens, UniProt P50281).
T5 construct: The catalytic domain enzyme was expressed in E. coli inclusion bodies, solubilized in urea; made in house
Put plainly: MMP-14 inhibition (in vitro Ki). As to conditions: Table 9; read-out: MMP-14 Ki (IC-50).

T2 sequence (P14780 107-707 limits assumed): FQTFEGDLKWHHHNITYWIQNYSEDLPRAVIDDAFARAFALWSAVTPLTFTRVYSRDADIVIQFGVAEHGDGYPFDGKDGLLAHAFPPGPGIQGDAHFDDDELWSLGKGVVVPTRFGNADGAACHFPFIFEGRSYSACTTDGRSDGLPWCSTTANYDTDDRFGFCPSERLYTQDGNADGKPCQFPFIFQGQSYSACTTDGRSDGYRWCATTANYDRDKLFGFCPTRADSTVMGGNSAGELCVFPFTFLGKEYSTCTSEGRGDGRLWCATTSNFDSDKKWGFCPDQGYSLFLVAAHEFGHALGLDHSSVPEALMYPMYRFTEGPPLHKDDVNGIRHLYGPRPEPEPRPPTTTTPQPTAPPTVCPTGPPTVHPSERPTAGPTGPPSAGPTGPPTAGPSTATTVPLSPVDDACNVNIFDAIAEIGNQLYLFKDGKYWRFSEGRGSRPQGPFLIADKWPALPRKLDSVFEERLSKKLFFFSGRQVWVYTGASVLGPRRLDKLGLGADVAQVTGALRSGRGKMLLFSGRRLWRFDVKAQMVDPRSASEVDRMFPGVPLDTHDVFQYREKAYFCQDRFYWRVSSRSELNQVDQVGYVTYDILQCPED

Turning to `CC(C)CN(C)C(=O)CCCCC1CCN(S(=O)(=O)C2(C(=O)NO)CCOCC2)CC1` [Example A91], the inhibition constant (Ki) was 781 nM on MMP-2; 3800 nM on MMP-9; 2580 nM on MMP-1; 5.08 nM at MMP-13; > 10 µM on MMP-14.

Consider `O=C(CCCCC1CCN(S(=O)(=O)C2(C(=O)NO)CCOCC2)CC1)N1CCCCC1` [Example A92], for which the Ki is 237 nM at MMP-2; 1100 nM on MMP-9; 3910 nM at MMP-1; 2.01 nM on MMP-13; > 10 µM at MMP-14.

Turning to `CN(C(=O)CCCCC1CCN(S(=O)(=O)C2(C(=O)NO)CCOCC2)CC1)c1ccc(F)cc1` [Example A93], the Ki at MMP-2 was 92.3 nM; at MMP-9, 336 nM; on MMP-1, 1050 nM; on MMP-13, 0.82 nM; at MMP-14 it was > 10 µM.

As for `CN(C(=O)CCCCC1CCN(S(=O)(=O)C2(C(=O)NO)CCOCC2)CC1)c1ccccc1` [Example A94], the Ki at MMP-2 was 197 nM; on MMP-9 it was 823 nM; on MMP-1 it was 2820 nM; on MMP-13, 1.18 nM; at MMP-14, > 10 µM.

`O=C(NO)C1(S(=O)(=O)N2CCC(c3ccc(CCc4ccsc4)cn3)CC2)CCOCC1` [Example A95]: the inhibition constant Ki came out at 2.13 nM on MMP-2; 7.97 nM at MMP-9; 7630 nM on MMP-1; 0.376 nM at MMP-13; 2.27 µM on MMP-14.

`CN(C(=O)CCCCC1CCN(S(=O)(=O)C2(C(=O)NO)CCOCC2)CC1)C1CCCCC1` [Example A96]: the Ki was 240 nM at MMP-2; 726 nM on MMP-9; 1110 nM at MMP-1; 1.1 nM on MMP-13; > 10 µM on MMP-14.

With `O=C(CCCCC1CCN(S(=O)(=O)C2(C(=O)NO)CCOCC2)CC1)N1CCCC1` [Example A97], the Ki on MMP-2 was 135 nM; on MMP-9, 592 nM; at MMP-1, 496 nM; at MMP-13, 1.63 nM; on MMP-14, > 10 µM.

`O=C(CCCCC1CCN(S(=O)(=O)C2(C(=O)NO)CCOCC2)CC1)N1CCN(c2ccccc2)CC1` [Example A98]: the Ki on MMP-2 was 38.2 nM; on MMP-9, 191 nM; on MMP-1, 1620 nM; at MMP-13, 0.17 nM; at MMP-14, > 10 µM.

On to `CN(Cc1ccco1)C(=O)CCCCC1CCN(S(=O)(=O)C2(C(=O)NO)CCOCC2)CC1` [Example A99], for which the Ki on MMP-2 was 50.8 nM; at MMP-9, 241 nM; at MMP-1, 356 nM; on MMP-13, 0.79 nM; at MMP-14, > 10 µM.

`O=C(NO)C1(S(=O)(=O)N2CCC(c3ccc(CCc4ccccc4)cn3)CC2)CCOCC1` [Example A100]: the Ki on MMP-2 is 5.27 nM; on MMP-9, 13.2 nM; on MMP-1, > 10000 nM; on MMP-13, 0.45 nM; at MMP-14 it was 1.77 µM.

In the case of `O=C(NO)C1(S(=O)(=O)N2CCC(c3ccc(CCC(F)(F)C(F)(F)F)cn3)CC2)CC=CC1` [Example A101], the Ki came out at 0.9 nM on MMP-2; 0.33 nM at MMP-9; 721 nM on MMP-1; 0.17 nM at MMP-13; 2.64 µM on MMP-14.

For `O=C(NO)C1(S(=O)(=O)N2CCC(c3ccc(CCc4cccs4)cn3)CC2)CCOCC1` [Example A102], the inhibition constant Ki turned out to be 1.3 nM at MMP-2; 3.84 nM at MMP-9; 6280 nM at MMP-1; 0.215 nM at MMP-13; 2.16 µM at MMP-14.

As to `COC(=O)CCCCC1CCN(S(=O)(=O)C2(C(=O)NO)CCOCC2)CC1` [Example A103], the Ki at MMP-2 is 3.84 nM; on MMP-9, 3.39 nM; at MMP-1, 363 nM; on MMP-13, 1.08 nM; on MMP-14 it was 2.88 µM.

As for `O=C(NO)C1(S(=O)(=O)N2CCC(c3ccc(CCC(F)(F)F)cn3)CC2)CCCC1` [Example A105], the Ki is 0.52 nM on MMP-2; 0.18 nM on MMP-9; 2170 nM on MMP-1; 0.23 nM at MMP-13; 1.13 µM on MMP-14.

As to `O=C(NO)C1(S(=O)(=O)N2CCC(c3ccc(CCC4CCCC4)cn3)CC2)CCOCC1` [Example A106], the Ki came to 0.54 nM on MMP-2; 1.05 nM on MMP-9; 5460 nM on MMP-1; 0.14 nM on MMP-13; 1.25 µM at MMP-14.

As to `COCCC(CCOC)(C(=O)NO)S(=O)(=O)N1CCC(c2ccc(CCC(F)(F)C(F)(F)F)cn2)CC1` [Example A107], the Ki at MMP-2 was determined as 2.89 nM; on MMP-9, 0.86 nM; on MMP-1, 4440 nM; at MMP-13, 0.85 nM; at MMP-14 it was 3.37 µM.

Regarding `O=C(NCCCCC1CCN(S(=O)(=O)C2(C(=O)NO)CCOCC2)CC1)C(=O)c1cccs1` [Example A108], the Ki on MMP-2 was 3.25 nM; at MMP-9 it was 55.5 nM; at MMP-1, 630 nM; on MMP-13, 0.16 nM; at MMP-14, 4.52 µM.

For the compound `COCC(=O)N1CCC(C(=O)NO)(S(=O)(=O)N2CCC(c3ccc(CCC(F)(F)C(F)(F)F)cn3)CC2)CC1` [Example A109], the Ki turned out to be 0.6 nM on MMP-2; 26.8 nM at MMP-9; 8300 nM on MMP-1; 0.42 nM at MMP-13; 3.72 µM at MMP-14.

On to `O=C(NO)C1(S(=O)(=O)N2CCC(c3cnc(CCC4CC4)cn3)CC2)CCOCC1` [Example A110], for which the Ki is 7.78 nM at MMP-2; 1.03 nM on MMP-9; > 10000 nM at MMP-1; 4.4 nM on MMP-13; 9.21 µM on MMP-14.

`CN(CC1CCCCC1)C(=O)CCCC1CCN(S(=O)(=O)C2(C(=O)NO)CCOCC2)CC1` [Example A111]: the Ki is 364 nM on MMP-2; 1710 nM at MMP-9; > 10000 nM on MMP-1; 9.09 nM at MMP-13; > 10 µM at MMP-14.

`CN(CC1CCCCC1)C(=O)CCCCC1CCN(S(=O)(=O)C2(C(=O)NO)CCOCC2)CC1` [Example A112]: the Ki is 190 nM at MMP-2; 1820 nM at MMP-9; 708 nM at MMP-1; 0.92 nM on MMP-13; > 10 µM at MMP-14.

For the compound `O=C(NO)C1(S(=O)(=O)N2CCC(c3ccc(CCC(F)(F)C(F)(F)F)cn3)CC2)Cc2ccccc2C1` [Example A113], the Ki on MMP-2 was determined as 1.28 nM; at MMP-9, 0.8 nM; at MMP-1, 9730 nM; on MMP-13, 0.34 nM; on MMP-14 it was 4.41 µM.

Regarding `O=C(NO)C1(S(=O)(=O)N2CCN(c3nnn(Cc4ccccc4)n3)CC2)CCOCC1` [Example A114], the Ki came to 0.38 nM on MMP-2; 0.94 nM on MMP-9; 5410 nM at MMP-1; 0.8 nM at MMP-13; 1.15 µM at MMP-14.

In the case of `O=C(NCCCCC1CCN(S(=O)(=O)C2(C(=O)NO)CCOCC2)CC1)C1(c2ccccc2)CC1` [Example A115], the Ki is 98.5 nM at MMP-2; 1350 nM at MMP-9; > 10000 nM at MMP-1; 0.81 nM at MMP-13; > 10 µM on MMP-14.

Take `O=C(NO)C1(S(=O)(=O)N2CCC(c3ccc(/C=C/C(F)(F)C(F)(F)F)cn3)CC2)CCOCC1` [Example A116]: the Ki on MMP-2 worked out at 0.19 nM; at MMP-9 it was 0.14 nM; on MMP-1, 1700 nM; at MMP-13 it was 0.08 nM; at MMP-14, 0.331 µM.

On to `CC(C)CCc1cnc(C2CCN(S(=O)(=O)C3(C(=O)NO)CCOCC3)CC2)cn1` [Example A117], for which the Ki on MMP-2 was 9.91 nM; on MMP-9, 0.96 nM; at MMP-1, > 10000 nM; on MMP-13, 2.8 nM; at MMP-14 it was > 10 µM.

For the compound `O=C(CO)N1CCC(C(=O)NO)(S(=O)(=O)N2CCC(c3ccc(CCC(F)(F)C(F)(F)F)cn3)CC2)CC1` [Example A118], the Ki on MMP-2 was determined as 0.56 nM; at MMP-9 it was 0.4 nM; on MMP-1 it was 6600 nM; on MMP-13, 0.18 nM; at MMP-14 it was 3.6 µM.

For the origin of these results see patent US20050209278A1, “Piperidinyl- and piperazinyl-sulfonylmethyl hydroxamic acids and their use as protease inhibitors” (priority 2002, published 2005).
